Experimental data reported in publication PMC7073924, “2-Aminomethylene-5-sulfonylthiazole Inhibitors of Lysyl Oxidase (LOX) and LOXL2 Show Significant Efficacy in Delaying Tumor Growth” (Journal of Medicinal Chemistry, 2019).
Values joined by “and” are separate entries in the source; they are usually repeats but may differ in a detail not shown here. Identical values can stand only once. Counter-ions that a name gives are not always drawn. Like-named read-outs stand apart in the source and are kept apart here.

Experiments:
[1] = biological target: T1, LOXL3 (Homo sapiens, UniProt P58215); test: LOXL3 enzyme assay (Promega ROS-Glo, cadaverine substrate); format: biochemical
T1 sequence (P58215 26-753): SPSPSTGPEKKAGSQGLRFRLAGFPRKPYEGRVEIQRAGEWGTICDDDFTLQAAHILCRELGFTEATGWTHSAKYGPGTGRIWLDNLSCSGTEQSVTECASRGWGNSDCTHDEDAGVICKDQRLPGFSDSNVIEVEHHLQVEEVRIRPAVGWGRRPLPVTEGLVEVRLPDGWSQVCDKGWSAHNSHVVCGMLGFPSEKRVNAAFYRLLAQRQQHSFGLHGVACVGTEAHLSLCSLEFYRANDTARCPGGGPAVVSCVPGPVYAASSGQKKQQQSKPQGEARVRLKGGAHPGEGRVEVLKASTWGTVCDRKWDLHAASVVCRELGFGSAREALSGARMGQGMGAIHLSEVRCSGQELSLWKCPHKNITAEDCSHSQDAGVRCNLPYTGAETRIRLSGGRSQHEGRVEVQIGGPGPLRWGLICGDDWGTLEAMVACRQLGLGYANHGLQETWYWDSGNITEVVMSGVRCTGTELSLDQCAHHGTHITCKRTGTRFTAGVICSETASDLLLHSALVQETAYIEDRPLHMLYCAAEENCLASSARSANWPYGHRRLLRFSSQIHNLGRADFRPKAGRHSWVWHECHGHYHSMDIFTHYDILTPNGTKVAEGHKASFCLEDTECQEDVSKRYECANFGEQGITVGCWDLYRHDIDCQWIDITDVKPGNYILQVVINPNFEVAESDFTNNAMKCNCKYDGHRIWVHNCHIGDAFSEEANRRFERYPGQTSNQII
Method: (§1) LOXL2 and LOXL3 were purchased from R&D Systems. LOX, LOXL2, and LOXL3 catalytic activity were determined using the Promega ROS-Glo assay kit with cadaverine dihydrochloride as substrate, BAPN as the reference inhibitor control, a preincubation time of 20 min, 1 h, or 3 h, with nine dilutions from a top concentration of 10 μM or 100 μM.

[2] = biological target: T2, LOXL2 (Homo sapiens, UniProt Q9Y4K0); test: LOXL2 enzyme assay (Promega ROS-Glo, cadaverine substrate); format: biochemical; set-up: Activity (LOXL2 activity used in the RVM model data matrix): unit not given here
T2 sequence (Q9Y4K0 26-774): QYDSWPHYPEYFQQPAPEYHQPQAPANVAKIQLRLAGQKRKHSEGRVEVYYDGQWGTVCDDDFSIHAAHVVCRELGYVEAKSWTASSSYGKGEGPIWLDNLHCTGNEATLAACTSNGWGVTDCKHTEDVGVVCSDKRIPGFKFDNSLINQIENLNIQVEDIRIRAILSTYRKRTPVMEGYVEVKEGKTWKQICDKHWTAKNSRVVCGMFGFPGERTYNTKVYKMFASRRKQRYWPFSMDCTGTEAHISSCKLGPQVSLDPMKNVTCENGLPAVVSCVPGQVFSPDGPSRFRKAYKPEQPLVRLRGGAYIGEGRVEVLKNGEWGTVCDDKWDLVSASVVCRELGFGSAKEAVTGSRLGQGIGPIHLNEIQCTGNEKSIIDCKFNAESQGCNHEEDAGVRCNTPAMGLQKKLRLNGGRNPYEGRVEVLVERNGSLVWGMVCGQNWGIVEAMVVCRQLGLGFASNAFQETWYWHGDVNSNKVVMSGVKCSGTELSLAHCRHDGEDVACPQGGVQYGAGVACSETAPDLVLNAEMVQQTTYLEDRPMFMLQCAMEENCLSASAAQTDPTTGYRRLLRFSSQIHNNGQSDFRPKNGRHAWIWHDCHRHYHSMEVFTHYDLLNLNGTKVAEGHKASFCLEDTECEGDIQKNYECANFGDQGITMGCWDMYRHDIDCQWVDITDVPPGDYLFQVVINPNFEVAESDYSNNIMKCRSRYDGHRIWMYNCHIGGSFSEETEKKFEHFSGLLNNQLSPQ

[3] = biological target: T3, SSAO (Homo sapiens, UniProt Q16853); format: biochemical
T3 construct: purchased Sigma
T3 sequence (Q16853 1-763): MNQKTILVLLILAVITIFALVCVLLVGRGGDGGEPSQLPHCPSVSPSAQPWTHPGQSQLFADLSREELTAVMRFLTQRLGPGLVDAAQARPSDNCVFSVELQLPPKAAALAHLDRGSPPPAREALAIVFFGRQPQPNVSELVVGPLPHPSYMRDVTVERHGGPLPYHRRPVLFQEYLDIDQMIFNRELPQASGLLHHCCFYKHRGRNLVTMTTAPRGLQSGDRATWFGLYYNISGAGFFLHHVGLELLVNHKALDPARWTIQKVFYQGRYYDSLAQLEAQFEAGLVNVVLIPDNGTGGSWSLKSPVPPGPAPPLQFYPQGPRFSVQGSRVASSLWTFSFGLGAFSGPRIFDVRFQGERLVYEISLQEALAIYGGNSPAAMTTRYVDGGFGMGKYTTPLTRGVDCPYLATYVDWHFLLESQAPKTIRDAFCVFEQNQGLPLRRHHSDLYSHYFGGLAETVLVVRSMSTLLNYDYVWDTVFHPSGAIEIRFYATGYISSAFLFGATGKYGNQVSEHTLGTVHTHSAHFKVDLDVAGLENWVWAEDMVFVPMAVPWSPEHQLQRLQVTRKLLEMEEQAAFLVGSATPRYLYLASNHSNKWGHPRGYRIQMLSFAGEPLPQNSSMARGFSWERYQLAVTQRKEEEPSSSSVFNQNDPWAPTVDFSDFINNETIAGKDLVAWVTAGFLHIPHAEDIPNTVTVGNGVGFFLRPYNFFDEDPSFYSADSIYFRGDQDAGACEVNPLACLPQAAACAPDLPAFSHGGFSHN
Method: All amine oxidase assays were performed with concentrations as above. MAO-A and MAO-B enzymes were purchased from Sigma. The catalytic activity of MAO-A and MAO-B was determined using the Promega MAO-Glo assay kit (substrate included), with clorgyline and deprenyl as reference inhibitor controls, respectively. DAO was purchased from Sigma, and the catalytic activity was determined using the Promega ROS-Glo assay kit, with aminoguanidine as the reference inhibitor control. SSAO was purchased from Sigma. SSAO catalytic activity was determined using the Promega MAO-Glo assay kit, with mofegiline as the reference inhibitor control.

[4] = biological target: T4, LOX (Sus scrofa, UniProt P45845); test: LOX enzyme assay (Promega ROS-Glo, cadaverine substrate); format: biochemical, pig; details: Table 6; 1 h preincubation
T4 sequence (P45845 1-249): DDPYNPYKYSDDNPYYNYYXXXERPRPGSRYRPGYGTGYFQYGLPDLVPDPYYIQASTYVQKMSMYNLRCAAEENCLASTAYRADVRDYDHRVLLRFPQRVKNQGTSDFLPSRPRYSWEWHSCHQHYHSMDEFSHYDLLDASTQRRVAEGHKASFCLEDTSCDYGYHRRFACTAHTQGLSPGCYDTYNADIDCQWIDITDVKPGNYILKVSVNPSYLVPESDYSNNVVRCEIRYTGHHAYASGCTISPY
Method: as §1

In the case of `CS(=O)(=O)c1cc(-c2ccccc2)cc(S(=O)(=O)c2ccc(CN)s2)c1` [Compound 3a], the IC50 [1] is reported as 13500 nM and 18500 nM.
For `NCc1ccc(S(=O)(=O)c2ccc3ccccc3c2)s1` [Compound 4], the “increase in LOXL2 potency on increasing preincubation from 20 min to 1 h” value [2] was at most 5 fold.
In the case of `NCc1ncc(S(=O)(=O)c2ccc3ccccc3c2)s1` [Compound 6], the IC50 [3] is reported as 47200 nM and 47100 nM.
For `CNCc1ncc(S(=O)(=O)c2cc(-c3ccccc3)cc(S(C)(=O)=O)c2)s1` [Compound 7b, N-Methyl-1-(5-((5-(methylsulfonyl)-[1,1′-biphenyl]-3-yl)sulfonyl)thiazol-2-yl)methanamine Hydrochloride], the IC50 ([2]; read-out: LOXL2, IC50) was 68300 nM.
In the case of `CS(=O)(=O)c1cc(-c2ccccc2)cc([S+]([O-])c2cnc(CN)s2)c1` (stereo not drawn) [Compound 7c, (5-((5-(Methylsulfonyl)-[1,1′-biphenyl]-3-yl)sulfinyl)thiazol-2-yl)methanamine Hydrochloride], the IC50 ([2]; read-out: LOXL2 IC50) is reported as 244 nM and 236 nM.
For `CS(=O)(=O)c1cc(Sc2cnc(CN)s2)cc(-c2ccccc2)c1` [Compound 7d, (5-((5-(Methylsulfonyl)-[1,1′-biphenyl]-3-yl)thio)thiazol-2-yl)methanamine Hydrochloride], the IC50 ([2]; read-out: LOXL2 IC50) was 233 nM and the IC50 [4] was 1310 nM and 1130 nM.
`CCCS(=O)(=O)c1cnc(CN)s1` [Compound 10, (5-(Propylsulfonyl)thiazol-2-yl)methanamine Hydrochloride] was tested, and the “Activity (LOXL2 activity used in the RVM model data matrix)” value [2] was 6.24 and the IC50 ([2]; Table 3, 1 h preincubation, read-out: LOXL2 IC50) was 554 nM and 590 nM.
In the case of `CS(=O)(=O)c1cccc(S(=O)(=O)c2cnc(CN)s2)c1` [Compound 13, (5-((3-(Methylsulfonyl)phenyl)sulfonyl)thiazol-2-yl)methanamine Hydrochloride], the IC50 ([2]; read-out: LOXL2 IC50) is reported as 184 nM and 246 nM.
With `CS(=O)(=O)c1cccc(-c2cnc(CN)s2)c1` [Compound 14, (5-(3-(Methylsulfonyl)phenyl)thiazol-2-yl)methanamine Hydrochloride] the IC50 ([2]; read-out: LOXL2 IC50) was 414 nM and 394 nM.
In the case of `NCc1ncc(-c2cccc(-c3ccccc3)c2)s1` [Compound 16, (5-([1,1′-Biphenyl]-3-yl)thiazol-2-yl)methanamine Hydrochloride], the IC50 ([2]; read-out: LOXL2 IC50) is reported as 1750 nM and 1600 nM.
For `CS(=O)(=O)c1cc(-c2ccccc2)cc(-c2cnc(CN)s2)c1` [Compound 17, (5-(5-(Methylsulfonyl)-[1,1′-biphenyl]-3-yl)thiazol-2-yl)methanamine Hydrochloride], the “Activity (LOXL2 activity used in the RVM model data matrix)” value [2] was 6.16, the IC50 ([2]; read-out: LOXL2 IC50) was 652 nM and 716 nM and the IC50 [4] was 52000 nM and 46500 nM.
`Cc1ccc(-c2cc(S(C)(=O)=O)cc(S(=O)(=O)c3cnc(CN)s3)c2)cc1` [Compound 18, (5-((4′-Methyl-5-(methylsulfonyl)-[1,1′-biphenyl]-3-yl)sulfonyl)thiazol-2-yl)methanamine Hydrochloride] was tested, and the IC50 [3] was 2700 nM and 1300 nM.
In the case of `Cn1cc(-c2cc(Cl)cc(S(=O)(=O)c3cnc(CN)s3)c2)cn1` [Compound 21d, (5-((3-Chloro-5-(1-methyl-1H-pyrazol-4-yl)phenyl)sulfonyl)thiazol-2-yl)methanamine Hydrochloride], the IC50 ([2]; Activity column of RVM_model_LOXL2.csv, Type = Data matrix, input activity for the RVM model of LOXL2, read-out: Activity (LOXL2 activity used in the RVM model data matrix) (converted)) is reported as 309 nM and the IC50 ([2]; read-out: LOXL2 IC50) is reported as 280 nM.
